In US10246414B2, “Allosteric modulators of CB1 cannabinoid receptors” (Northeastern University, priority 2012, dated 2019):

Assays:
[1] = molecular target: CB1 cannabinoid receptors (CNR1 cAMP Hunter cell line) (Homo sapiens, UniProt P21554); assay: cAMP Hunter (DiscoveRx HitHunter cAMP XS+) allosteric modulation assay with CP55,940 at EC20; type: cell-based
Protocol: Once it was established that the cells were healthy and growing normally, cells were passaged from flasks using cell dissociation reagent buffer and seeded into white walled clear bottom 384-well microplates for compound profiling. For profiling, cells were seeded at a density of 10000 cells per well in a total volume of 20 μL and were allowed to adhere and recover overnight prior to compound addition. Cells were treated the following day using the protocols shown below. cAMP modulation was determined using the DiscoveRx HitHunter cAMP XS+ assay.
Media was aspirated from cells and replaced with 10 μL 1:1 HBSS/Hepes: cAMP XS+Ab reagent. Agonist (CP55,940) dose curves were performed to determine the EC20 value for the following testing with compounds. 5 μL of 4× agonist was added to each well with an equal concentration of vehicle present. EC20 agonist concentration was determined directly from agonist dose curve.
For allosteric determination, cells were preincubated with compound followed by agonist challenge at the EC20 concentration. 5 μL of 4× compound was added to cells and incubated at 37° C. for 30 minutes. 5 μL of 4× EC20 agonist was added to cells and incubated at 37° C. for 30 minutes.
Signal Detection: After appropriate compound incubation, assay signal was generated through incubation with 20 μL cAMP XS+ED/CL lysis cocktail for one hour followed by incubation with 20 μL cAMP XS+EA reagent for three hours at room temperature. Microplates were read following signal generation with a PerkinElmer Envision™ instrument for chemiluminescent signal detection.
Data Analysis: Dose curves were plotted using GraphPad Prism or Activity Base. The percentage activity is calculated using the following formula: % Activity=100%×(1−(mean RLU of test sample−mean RLU of MAX control)/(mean RLU of vehicle control [EC20 for PAM]−mean RLU of MAXcontrol).
Agonist (CP55,940) dose curves were performed for the CNR1 PathHunter and cAMP Hunter cell lines. […] The cAMP assay was performed in the presence of 20 μM forskolin (EC80).

[2] = test system: extracellular dopamine levels in nucleus accumbens; assay: In vivo microdialysis, dopamine in shell of nucleus accumbens; parameters: species or system Sprague-Dawley male rats; conditions: 30 mg/kg IP, rat nucleus accumbens shell, dialysate samples every 20 minutes; ANOVA p=0.325, NS
Protocol: Concentric microdialysis probes with 2 mm-long dialysis membranes were prepared as described previously (Pontieri, Tanda & DiChiara 1995). Sprague-Dawley male rats were anesthetized with Equithesin and probes were surgically implanted in the shell of nucleus accumbens (coordinates with respect to bregma: anterior, +2.2; lateral, −1.0; vertical −8.0 from dura). Ringer's solution (147 mM NaCl, 2.2 mM CaCl2, 4.0 mM KCl) was pumped through the dialysis probe at a constant flow rate of 1 uL/minute. […] Collection of dialysate samples started after 20 minutes, with samples collected every 20 minutes and immediately analyzed by a high-performance liquid chromatography system coupled to electrochemical detection to quantify dopamine.
Results are presented as group means (±SEM). Microdialysis data were analyzed using two-way ANOVA.

Sequence of CB1 cannabinoid receptors (CNR1 cAMP Hunter cell line) (P21554 whole entry): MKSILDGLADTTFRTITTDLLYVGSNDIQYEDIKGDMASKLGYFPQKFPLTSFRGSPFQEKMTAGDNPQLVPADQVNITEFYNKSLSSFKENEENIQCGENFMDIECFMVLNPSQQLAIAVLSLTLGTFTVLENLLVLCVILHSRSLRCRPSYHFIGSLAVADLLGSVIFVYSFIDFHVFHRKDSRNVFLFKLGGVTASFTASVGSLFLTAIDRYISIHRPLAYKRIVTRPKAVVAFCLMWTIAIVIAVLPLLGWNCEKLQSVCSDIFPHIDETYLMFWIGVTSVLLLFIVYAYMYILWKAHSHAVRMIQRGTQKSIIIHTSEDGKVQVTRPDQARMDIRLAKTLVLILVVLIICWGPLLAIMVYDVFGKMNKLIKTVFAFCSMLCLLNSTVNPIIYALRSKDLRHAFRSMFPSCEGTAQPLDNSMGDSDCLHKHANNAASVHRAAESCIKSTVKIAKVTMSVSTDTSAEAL

O=[N+]([O-])CC(c1ccccn1)c1c(-c2ccccc2)[nH]c2ccccc12 (racemic) [Compound 10, 3-(2-Nitro-1-(pyridin-2-yl)ethyl)-2-phenyl-1H-indole]
EC50 [1]: 0.456 µM
Emax [1]: 96%

O=[N+]([O-])CC(c1ccc(N2CCCCC2)cc1)c1c(-c2ccccc2)[nH]c2ccccc12 (stereo not shown) [Compound 4, 3-(2-Nitro-1-(4-(piperidin-1-yl)phenyl)ethyl)-2-phenyl-1H-indole]
EC50 [1]: 0.59 µM
Emax [1]: 101%

O=[N+]([O-])c1cccc(-c2c(-c3ccccc3)[nH]c3ccccc23)c1 [Compound 8, 3-(3-Nitrophenyl)-2-phenyl-1H-indole]
EC50 [1]: > 10 µM
Emax [1]: 54%

O=[N+]([O-])CC(c1ccccc1)c1c(-c2ccccc2)[nH]c2ccc(Cl)cc12 (stereo not shown) [Compound 7, 5-Chloro-3-(2-nitro-1-phenylethyl)-2-phenyl-1H-indole]
EC50 [1]: 1.01 µM
Emax [1]: 44%

O=[N+]([O-])C[C@@H](c1ccccn1)c1c(-c2ccccc2)[nH]c2ccccc12 (single isomer, unassigned) [Compound 12]
EC50 [1]: 0.417 µM
Emax [1]: 119%

O=[N+]([O-])C[C@H](c1ccccn1)c1c(-c2ccccc2)[nH]c2ccccc12 (single isomer, unassigned) [Compound 11]
EC50 [1]: 0.3 µM
Emax [1]: 120%

O=[N+]([O-])C[C@H](c1ccccc1)c1c(-c2ccccc2)[nH]c2ccccc12 (single isomer, unassigned) [Compound 2]
Emax [1]: 75%

O=[N+]([O-])CC(c1ccccc1)c1cn(-c2ccccc2)c2ccccc12 (stereo not shown) [Compound 9, 3-(2-Nitro-1-phenylethyl)-1-phenyl-1H-indole]
EC50 [1]: 0.92 µM
Emax [1]: 105%

O=[N+]([O-])CC(c1ccccc1)c1c(-c2ccc(F)c(Cl)c2)[nH]c2ccccc12 (stereo not shown) [Compound 15, 2-(3-Chloro-4-fluorophenyl)-3-(2-nitro-1-phenylethyl)-1H-indole]
EC50 [1]: 0.411 µM
Emax [1]: 110%

O=[N+]([O-])C[C@@H](c1ccccc1)c1c(-c2ccccc2)[nH]c2ccccc12 (single isomer, unassigned) [Compound 3]
Emax [1]: 96%

O=[N+]([O-])CC(c1ccccc1)c1c(-c2ccccc2)[nH]c2ccccc12 (racemic) [Compound 1, 3-(2-Nitro-1-phenylethyl)-2-phenyl-1H-indole, reference compound]
Emax [1]: 80%
change in extracellular dopamine levels after injection [2]: no significant change

O=[N+]([O-])CC(c1ccccc1)c1c(-c2ccc3ccccc3c2)[nH]c2ccccc12 (stereo not shown) [Compound 6]
EC50 [1]: 0.744 µM
Emax [1]: 65%

O=[N+]([O-])CC(c1ccccc1)c1c(-c2ccc(F)cc2)[nH]c2ccccc12 (stereo not shown) [Compound 13, 2-(4-Fluorophenyl)-3-(2-nitro-1-phenylethyl)-1H-indole]
EC50 [1]: 0.327 µM
Emax [1]: 110%

O=[N+]([O-])CC(c1ccc(-c2ccccc2)cc1)c1c(-c2ccccc2)[nH]c2ccccc12 (stereo not shown) [Compound 5, 3-(1-([1,1′-Biphenyl]-4-yl)-2-nitroethyl)-2-phenyl-1H-indole]
EC50 [1]: > 10 µM
Emax [1]: 0%

O=[N+]([O-])CC(c1ccccc1)c1c(-c2ccc(Cl)cc2)[nH]c2ccccc12 (stereo not shown) [Compound 14, 2-(4-Chlorophenyl)-3-(2-nitro-1-phenylethyl)-1H-indole]
EC50 [1]: 0.65 µM
Emax [1]: 115%
